Experimental data as given in ChEMBL document CHEMBL1149405, “Cytotoxicity of novel derivatives of the spin trap EMPO” (2006).
The source made the active and inactive calls. No cut-off for these calls is given here.

Columns and labels:
[1] = system: SK-BR-3; assay: LDH release per cell after 24 h with 50 mM of compound in SKBr3 cell line; assay type: functional, Homo sapiens
[2] = system: SW480; assay: LDH release per cell after 24 h with 50 mM of compound in SW480 cell line; assay type: functional, Homo sapiens
[3] = system: F2000; assay: LDH release per cell after 24 h with 50mM of compound F2000 fibroblasts; assay type: functional, Homo sapiens
[4] = system: SW480; assay: Decrease in intracellular GSH levels at 50 mM expressed in […] cell line; assay type: functional, Homo sapiens; design: scale not given: the % may be the effect or the level left
[5] = system: SW480; assay: Increase in intracellular GSH levels at 10mM expressed in […] cell line; assay type: functional, cell-based; settings: Homo sapiens
[6] = system: SW480; assay: Decrease in cell number against human colon carcinoma SW480 cell line at 100 mM; assay type: functional; design: scale not given: the % may be the effect or the level left
[7] = system: SW480; assay: Decrease in cell number against human colon carcinoma SW480 cell line at 50 mM; assay type: functional; design: scale not given: the % may be the effect or the level left
[8] = system: SW480; assay: Increase in intracellular GSH levels at 50 mM expressed in […] cell line; assay type: functional, cell-based; settings: Homo sapiens

Compound | Activity [1] [%] | Activity [2] [%] | Activity [3] [%] | Activity [4] [%] | Activity [5] | Activity [6] [%] | Activity [7] [%] | Activity [8]
CCCOC(=O)C1(C)CCC=[N+]1[O-] (configuration not stated) | 60 | 91 | 105 | 38 | Active | <60 | 10 | 
CCCCOC(=O)C1(C)CCC=[N+]1[O-] (configuration not stated) |  |  |  |  |  | >90 | 10 | 
CCC(C)OC(=O)C1(C)CCC=[N+]1[O-] (configuration not stated) | 101 | 1404 | 1211 | 67 |  | >90 | 10 | 
CC(C)OC(=O)C1(C)CCC=[N+]1[O-] (configuration not stated) | 54 | 78 | 84 |  | Active | <60 | 10 | Active
CC(C)(C)OC(=O)C1(C)CCC=[N+]1[O-] (configuration not stated) | 720 | 1280 | 670 |  |  | >90 | 10 | 
